Measured values from patent publication US11236046B2, “Substituted heterocyclic sulfonamide compounds useful as TRPA1 modulators” (Genentech, Inc., priority 2013, dated 2022).

Molecular target: human TRPA1 (Homo sapiens (Human), UniProt O75762)
Experiment: FLIPR Tetra calcium influx assay, block of cinnamaldehyde-induced calcium influx in CHO cells expressing TRPA1 (human)
Assay type: cell-based
Details: 20 min compound incubation, 75 uM cinnamaldehyde (~EC80), Hill coefficient fixed to 1.5, read-out: hTRPA1 AUC IC50
Experimental: IC50 Determinations of Exemplified Compounds.
IC50s (effective concentration) of compounds on the human and rat TRPA1 channels were determined using a FLIPR Tetra instrument. CHO cells expressing TRPA1 were plated into 384-well plates, incubated overnight at 37C, and loaded with BD calcium indicator dye for 1 hr at 37° C. followed by 15 minutes. at room temperature. The assay buffer was Hank's Balanced Salt Solution (HBSS) containing 20 mM HEPES (pH readjusted to 7.4) along with 0.02% BSA.
Following dye load and plate cool down, compounds were added to the cells using FLIPR Tetra. Plates were then incubated with compounds for 20 minutes at room temperature prior to adding agonist. Following this incubation, ˜EC80 concentration of cinnamaldehyde (75 uM for human TRPA1 and 45 uM for rat TRPA1) was added to active the channels and block of cinnamaldehyde induced calcium influx was measured.
Fixing the Hill coefficient will generally reduce variability of the IC50 determination. The IC50s were individually examined to make sure the MIN and MAX points were set correctly prior to validation of the results.

Sequence of human TRPA1 (O75762 whole entry): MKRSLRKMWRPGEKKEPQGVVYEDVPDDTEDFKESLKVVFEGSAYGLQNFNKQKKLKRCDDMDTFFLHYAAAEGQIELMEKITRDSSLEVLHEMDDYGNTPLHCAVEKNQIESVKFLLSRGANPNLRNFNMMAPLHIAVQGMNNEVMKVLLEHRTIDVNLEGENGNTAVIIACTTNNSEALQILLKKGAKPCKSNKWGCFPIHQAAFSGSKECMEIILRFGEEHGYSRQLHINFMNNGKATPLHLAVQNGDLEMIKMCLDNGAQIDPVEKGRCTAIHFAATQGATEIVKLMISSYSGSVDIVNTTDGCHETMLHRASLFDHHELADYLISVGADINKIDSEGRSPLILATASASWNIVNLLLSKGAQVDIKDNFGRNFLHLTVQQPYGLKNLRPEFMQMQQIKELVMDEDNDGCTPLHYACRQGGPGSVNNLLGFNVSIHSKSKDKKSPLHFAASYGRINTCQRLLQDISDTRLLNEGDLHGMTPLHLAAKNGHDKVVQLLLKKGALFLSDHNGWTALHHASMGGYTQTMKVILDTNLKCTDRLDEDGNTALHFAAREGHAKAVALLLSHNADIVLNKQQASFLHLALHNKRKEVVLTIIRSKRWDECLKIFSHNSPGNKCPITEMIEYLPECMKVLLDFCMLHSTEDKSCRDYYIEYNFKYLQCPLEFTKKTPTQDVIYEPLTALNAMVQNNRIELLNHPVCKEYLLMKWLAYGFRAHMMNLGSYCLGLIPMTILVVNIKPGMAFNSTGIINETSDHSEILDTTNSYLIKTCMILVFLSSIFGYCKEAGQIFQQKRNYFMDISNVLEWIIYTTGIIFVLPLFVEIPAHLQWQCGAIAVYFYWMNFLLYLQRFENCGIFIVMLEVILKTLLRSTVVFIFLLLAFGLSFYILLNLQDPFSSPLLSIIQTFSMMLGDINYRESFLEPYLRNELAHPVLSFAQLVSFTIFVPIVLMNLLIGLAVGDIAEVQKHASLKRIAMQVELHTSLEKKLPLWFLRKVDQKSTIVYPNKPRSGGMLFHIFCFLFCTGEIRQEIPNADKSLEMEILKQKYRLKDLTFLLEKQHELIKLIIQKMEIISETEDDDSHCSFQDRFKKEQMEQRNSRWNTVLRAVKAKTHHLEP

Compound	IC50
O=C(NCc1cn(-c2ccc(C(F)(F)F)cc2)nc1Cl)[C@@H]1C[C@@H](F)CN1S(=O)(=O)c1ccc(F)cc1 [Example 137, (2S,4R)—N-([3-chloro-1-[4-(trifluoromethyl)phenyl]-1H-pyrazol-4-yl]methyl)-4-fluoro-1-[(4-fluorobenzene)sulfonyl]pyrrolidine-2-carboxamide]	78 nM
O=C(NCc1cc(F)cc(-c2csc(C(F)(F)F)n2)c1)[C@@H]1C[C@@H](F)CN1S(=O)(=O)c1ccc(F)cc1 [Example 173, (2S,4R)-4-fluoro-1-(4-fluorophenyl)sulfonyl-N-[[3-fluoro-5-[2-(trifluoromethyl)thiazol-4-yl]phenyl]methyl]pyrrolidine-2-carboxamide]	111 nM
N#Cc1ccc(-c2cnc(C(F)(F)F)nc2)cc1CNC(=O)[C@@H]1C[C@@H](F)CN1S(=O)(=O)c1ccc(F)cc1 [Example 164, (2S,4R)—N-(2-cyano-5-(2-(trifluoromethyl)pyrimidin-5-yl)benzyl)-4-fluoro-1-((4-fluorophenyl)sulfonyl)pyrrolidine-2-carboxamide]	32 nM
O=C(NCc1cc(-c2ccc(C(F)(F)F)cn2)ccn1)[C@@H]1C[C@@H](F)CN1S(=O)(=O)c1ccc(F)cc1 [Example 131, (2S,4R)-4-fluoro-1-(4-fluorophenyl)sulfonyl-N-[[4-[5-(trifluoromethyl)-2-pyridyl]-2-pyridyl]methyl]pyrrolidine-2-carboxamide]	102 nM
O=C(NCc1cc(-c2ccc(C(F)(F)F)cc2)ncn1)[C@@H]1C[C@@H](F)CN1S(=O)(=O)c1ccc(F)c(F)c1 [Example 150, (2S,4R)-1-(3,4-difluorophenylsulfonyl)-4-fluoro-N-((6-(4-(trifluoromethyl)phenyl)pyrimidin-4-yl)methyl)pyrrolidine-2-carboxamide]	46 nM
C[C@@]1(C(=O)NCc2cc(-c3ccc(C(F)(F)F)cc3)ncn2)C[C@@H](F)CN1S(=O)(=O)c1ccc(F)cc1 (single isomer, unassigned) [Example 138]	25 nM
O=C(NCc1cc(N2CCC(C(F)(F)F)CC2)c(C(F)(F)F)cn1)[C@@H]1C[C@@H](F)CN1S(=O)(=O)c1ccc(F)cc1 [Example 130, (2S,4R)-4-fluoro-1-(4-fluorophenyl)sulfonyl-N-[[5-(trifluoromethyl)-4-[4-(trifluoromethyl)-1-piperidyl]-2-pyridyl]methyl]pyrrolidine-2-carboxamide]	52 nM
O=C(NCc1cn(-c2ccc(C(F)(F)F)nc2)nc1Cl)[C@@H]1CCN1S(=O)(=O)c1ccc(F)cc1 [Example 199, (2S)—N-([3-chloro-1-[6-(trifluoromethyl)pyridin-3-yl]-1H-pyrazol-4-yl]methyl)-1-[(4-fluorobenzene)sulfonyl]azetidine-2-carboxamide]	138 nM
O=C(NCc1cc(-c2ccc(C(F)(F)F)nc2)ncn1)C1C2CC(CC2F)N1S(=O)(=O)c1ccc(F)cc1 (stereo not drawn) [Example 51, 5-fluoro-2-(4-fluorophenyl)sulfonyl-N-[[6-[6-(trifluoromethyl)-3-pyridyl]pyrimidin-4-yl]methyl]-2-azabicyclo[2.2.1]heptane-3-carboxamide]	52 nM
O=C(NCc1ccnc(-c2ccc(C(F)(F)F)cc2O)c1)[C@@H]1C[C@@H](F)CN1S(=O)(=O)c1ccc(F)cc1 [Example 57, (2S,4R)-4-fluoro-1-(4-fluorophenyl)sulfonyl-N-[[2-[2-hydroxy-4-(trifluoromethyl)phenyl]-4-pyridyl]methyl]pyrrolidine-2-carboxamide]	5 nM
C[C@@H]1CC[C@@H](C(=O)NCc2cc(-c3ccc(C(F)(F)F)nc3)ncn2)N1S(=O)(=O)c1ccc(F)cc1 [Example 39, (2S,5R)-1-[(4-fluorobenzene)sulfonyl]-5-methyl-N-([6-[6-(trifluoromethyl)pyridin-3-yl]pyrimidin-4-yl]methyl)pyrrolidine-2-carboxamide]	45 nM
O=C(NCc1cn(-c2ccc(C(F)(F)F)nc2)nc1C1CC1)[C@@H]1C[C@@H](F)CN1S(=O)(=O)c1ccc(F)cc1 [Example 151, (2S,4R)—N-([3-cyclopropyl-1-[6-(trifluoromethyl)pyridin-3-yl]-1H-pyrazol-4-yl]methyl)-4-fluoro-1-[(4-fluorobenzene)sulfonyl]pyrrolidine-2-carboxamide]	161 nM
N#Cc1cnc(-c2ccc(C(F)(F)F)nc2)cc1CNC(=O)[C@@H]1C[C@@H](F)CN1S(=O)(=O)c1ccc(F)cc1 [Example 79, (2S,4R)—N-([5-cyano-2-[6-(trifluoromethyl)pyridin-3-yl]pyridin-4-yl]methyl)-4-fluoro-1-[(4-fluorobenzene)sulfonyl]pyrrolidine-2-carboxamide]	9 nM
(2S,4R)-4-fluoro-1-(4-fluorophenyl)sulfonyl-N-[[3-fluoro-5-[2-(trifluoromethyl)thiazol-5-yl]phenyl]methyl]pyrrolidine-2-carboxamide [Example 174]	12 nM
O=C(NCc1cc(F)cc(-c2cnc(C(F)(F)F)nc2)c1)[C@]12C[C@H]1CCN2S(=O)(=O)c1ccc(F)cc1 [Example 181, (1R,5S)-4-(4-fluorophenyl)sulfonyl-N-[[3-fluoro-5-[2-(trifluoromethyl)pyrimidin-5-yl]phenyl]methyl]-4-azabicyclo[3.1.0]hexane-5-carboxamide]	10 nM
O=C(NCc1cc(N2CCC(C(F)(F)F)CC2)c(F)cn1)[C@@H]1C[C@@H](F)CN1S(=O)(=O)c1ccc(F)cc1 [Example 144, (2S,4R)-4-fluoro-N-((5-fluoro-4-(4-(trifluoromethyl)piperidin-1-yl)pyridin-2-yl)methyl)-1-(4-fluorophenylsulfonyl)pyrrolidine-2-carboxamide]	56 nM

Continued, values first:

IC50	Compound
8 nM	N#Cc1ccc(-c2cnc(C(F)(F)F)nc2)cc1CNC(=O)[C@@H]1[C@H]2C[C@H]2CN1S(=O)(=O)c1ccc(F)cc1 [Example 176, (1S,2S,5R)—N-(2-cyano-5-(2-(trifluoromethyl)pyrimidin-5-yl)benzyl)-3-((4-fluorophenyl)sulfonyl)-3-azabicyclo[3.1.0]hexane-2-carboxamide]
86 nM	O=C(NCc1ccnc(-c2ccc(OC(F)F)cc2)c1)[C@@H]1C[C@@H](F)CN1S(=O)(=O)c1ccc(F)cc1 [Example 160, (2S,4R)—N-[[2-[4-(difluoromethoxy)phenyl]-4-pyridyl]methyl]-4-fluoro-1-(4-fluorophenyl)sulfonyl-pyrrolidine-2-carboxamide]
11 nM	O=C(NCc1cc(-c2ccc(C(F)(F)F)cn2)ccc1F)[C@@H]1C[C@@H](F)CN1S(=O)(=O)c1ccc(F)cc1 [Example 162, (2S,4R)-4-fluoro-N-(2-fluoro-5-(5-(trifluoromethyl)pyridin-2-yl)benzyl)-1-((4-fluorophenyl)sulfonyl)pyrrolidine-2-carboxamide]
11 nM	COc1nn(-c2ccc(C(F)(F)F)cc2)cc1CNC(=O)[C@@H]1C[C@@H](F)CN1S(=O)(=O)c1ccc(F)cc1 [Example 135, (2S,4R)-4-fluoro-1-[(4-fluorobenzene)sulfonyl]-N-([3-methoxy-1-[4-(trifluoromethyl)phenyl]-1H-pyrazol-4-yl]methyl)pyrrolidine-2-carboxamide]
404 nM	O=C(NCc1cc(N2CCC(F)(F)CC2)c(F)cn1)[C@@H]1C[C@@H](F)CN1S(=O)(=O)c1ccc(F)cc1 [Example 128, (2S,4R)—N-[[4-(4,4-difluoro-1-piperidyl)-5-fluoro-2-pyridyl]methyl]-4-fluoro-1-(4-fluorophenyl)sulfonyl-pyrrolidine-2-carboxamide]
113 nM	O=C(NCc1cc(-c2ccc(C(F)(F)F)nc2)ncn1)[C@@H]1C[C@]2(CN1S(=O)(=O)c1ccc(F)cc1)CC2(F)F (single isomer, unassigned) [Example 124]
47 nM	Cc1cc(CNC(=O)[C@@H]2C[C@@H](F)CN2S(=O)(=O)c2ccc(F)cc2)cc(-c2cnc(C(F)(F)F)nc2)n1 [Example 43, (2S,4R)-4-fluoro-1-(4-fluorophenyl)sulfonyl-N-[[2-methyl-6-[2-(trifluoromethyl)pyrimidin-5-yl]-4-pyridyl]methyl]pyrrolidine-2-carboxamide]
14 nM	O=C(NCc1cc(Cl)nc(-c2cnc(C(F)(F)F)nc2)c1)[C@@H]1C[C@@H](F)CN1S(=O)(=O)c1ccc(F)cc1 [Example 62, (2S,4R)—N-[[2-chloro-6-[2-(trifluoromethyl)pyrimidin-5-yl]-4-pyridyl]methyl]-4-fluoro-1-(4-fluorophenyl)sulfonyl-pyrrolidine-2-carboxamide]
78 nM	O=C(NCc1cn(-c2ccc(C(F)(F)F)nc2)nc1Cl)[C@@H]1C[C@@H](F)CN1S(=O)(=O)c1ccc(F)cc1 [Example 146, (2S,4R)—N-([3-chloro-1-[6-(trifluoromethyl)pyridin-3-yl]-1H-pyrazol-4-yl]methyl)-4-fluoro-1-[(4-fluorobenzene)sulfonyl]pyrrolidine-2-carboxamide]
60 nM	N#Cc1nn(-c2ccc(C(F)(F)F)cc2)cc1CNC(=O)[C@@H]1C[C@@H](F)CN1S(=O)(=O)c1ccc(F)cc1 [Example 50, (2S,4R)—N-([3-cyano-1-[4-(trifluoromethyl)phenyl]-1H-pyrazol-4-yl]methyl)-4-fluoro-1-[(4-fluorobenzene)sulfonyl]pyrrolidine-2-carboxamide]
7 nM	O=C(NCc1cc(F)cc(-c2cnc(C(F)(F)F)nc2)c1)[C@@H]1[C@@H](F)CCN1S(=O)(=O)c1ccc(F)cc1 [Example 68, (2R,3S)-3-fluoro-1-(4-fluorophenyl)sulfonyl-N-[[3-fluoro-5-[2-(trifluoromethyl)pyrimidin-5-yl]phenyl]methyl]pyrrolidine-2-carboxamide]
